According to patent US20120130078A1, “INDAZOLE DERIVATIVES AS ADENOSINE MONOPHOSPHATE DEAMINASE (AMPD) INHIBITORS FOR USE IN DIABETES AND RELATED DISEASES OF METABOLIC SYNDROME” (priority 2010, published 2012):

Key:
AMP deaminase (AMPD) = test: AMP deaminase enzymatic assay (in vitro); assay type: biochemical; conditions: for AMPD inhibition, comparison of three synthesized compounds: FIG. 9
Protocol: AMP deaminase activity was measured as described by Ashby and Frieden (4). Standard assay monitored the absorbance change at 285 nm as a result of AMP conversion to IMP in a reaction volume of 2 mL containing 50 mM imidazole-HCl (pH 7.0), 2 mM AMP and 150 mM KCl. One unit of enzyme activity is defined as the amount of protein required to produce 1 μmol IMP per min at 25° C. under standard conditions.

L6 cells [1] = test: Glucose uptake assay (2-deoxyglucose uptake) in L6 cells; assay type: cell-based; conditions: FIG. 1, 4, 10
Protocol: Glucose uptake was determined as the rate of 2-deoxy-D-[2,6-^3H]glucose uptake, using modification of a previous method (15). The cells were first incubated for 15 min with Krebs-Henseleit Bicarbonate buffer (KHB), glucose, and other agents as indicated. At this point, the labeled deoxyglucose (0.6 μCi) was added to each well and the incubation continued for 45 min. The media was aspirated, and the wells were washed three times with ice-cold KHB to remove exogenous label. The cells were lysed by the addition of 0.1% Triton-X100 (1 mL). Samples of each well were mixed with aqueous scintillation fluid and measured by liquid scintillation counting.

L6 cells [2] = test: Palmitate (fatty acid) oxidation assay in L6 cells; assay type: cell-based; conditions: FIG. 2, 3, 11
Protocol: Palmitate oxidation was determined by a modification of quantitative measuring the rate of ^14CO2 production from ^14C-labeled palmitic acid as described previously (24). The KHB for these incubations was supplemented with fatty-acid poor albumin, dialyzed against the same buffer (three changes). The final albumin concentration was 1%. After an initial 10 min of incubation, all samples received 2 mM carnitine and [1-^14C]-palmitic acid (1 μCi/mole), and other additions as noted, and incubations continued to the end of 3 h. Aliquots of 0.8 mL were taken from each well to an eppendorf tube. […] 200 μL of 3 M perchloric acid was carefully added to the 0.8 mL to ensure no acid was deposited on the side of the tube, and the lid was quickly closed. The tubes were incubated overnight to allow the [^14C] CO2 to be absorbed into the wick. The caps were removed with scissors and placed in 10 mL of liquid scintillation fluid for counting.

L6 cells [3] = test: Ammonia assay, ammonia formation by intact cells; assay type: cell-based; conditions: FIG. 7, 12
Protocol: Ammonia was measured as described by Kun et al. (19). Briefly, after two hours incubation with or without 10 mM metformin, 0.5 mL of samples were added into cuvette and mixed with assay reagents (100 mM Tris buffer, 10 mM α-ketoglutaric acid, 0.24 mM NADH in 1 mL). Absorbance was measured at 340 nm with spectro-photometer (Hitachi, U-2000). 20 μL of glutamate dehydrogenase (200 μg/mL) was added into cuvette and mixed, and absorbance was measured again after 1 hour at 340 nm.

L6 muscle cell line [4] = test: Lactate formation in L6 muscle cell line; assay type: cell-based
L6 muscle cell line [5] = test: Glycogen synthesis in L6 muscle cell line; assay type: cell-based
AMPK = test: Phosphorylation of AMPK; assay type: cell-based
acetyl CoA carboxylase = test: Phosphorylation of acetyl CoA carboxylase; assay type: cell-based
[6] = test system: cells with adenylate kinase knockout; test: Metformin action in cells with adenylate kinase knockout (siRNA); assay type: cell-based; conditions: adenylate kinase knockout using siRNA; FIG. 5

| Structure (SMILES) | AMPD inhibition, comparison of three synthesized compounds (AMP deaminase (AMPD)) | glucose transport / glucose uptake (L6 cells [1]) | palmitate / fatty acid oxidation (L6 cells [2]) | ammonia formation (L6 cells [3]) | other results |
| --- | --- | --- | --- | --- | --- |
| COC(=O)c1n[nH]c2ccccc12 [SKTT-2, methyl 1H-indazole-3-carboxylate] | similar | stimulated glucose uptake | replicated the metformin stimulation of fatty acid oxidation | suppressed ammonia formation | – |
| CN(C)C(=N)N=C(N)N [metformin] | – | stimulation of glucose transport | stimulation | decrease in ammonia formation | AMPD activity measured in vitro (AMP deaminase (AMPD); FIG. 6): inhibited AMPD activity; lactate formation (L6 muscle cell line [4]): stimulation; glycogen synthesis (L6 muscle cell line [5]): inhibition of glycogen synthesis; phosphorylation of the AMPK (AMPK): direct phosphorylation of the AMPK; phosphorylation of acetyl CoA carboxylase (acetyl CoA carboxylase): phosphorylation; effect of adenylate kinase deletion on metformin action [6]: no effect |
| NC(=O)c1n[nH]c2ccccc12 [SKTT-1, 1H-indazole-3-carboxamide] | similar | stimulated glucose uptake | replicated the metformin stimulation of fatty acid oxidation | suppressed ammonia formation | AMPD inhibition curves, potency compared with metformin (AMP deaminase (AMPD); FIG. 8, compared with metformin): more potent |
| [NH-]c1c[n+](N2CCOCC2)no1 [SIN-1] | – | stimulation of glucose transport | inhibits fatty acid oxidation | – | – |
| COC(=O)c1cccc2[nH]ncc12 [SKTT-12, methyl 1H-indazole-4-carboxylate] | somewhat less effective | – | – | – | – |
| C=C(C)[C@H]1Cc2c(ccc3c2O[C@@H]2COc4cc(OC)c(OC)cc4[C@@H]2C3=O)O1 [rotenone] | – | does increase glucose uptake | leads only to inhibition of fatty acid oxidation | – | – |
